Publication PMC12340973, “Discovery of First-in-Class Inhibitors Targeting a Pathogen-Associated Aminoglycoside-Resistance 16S rRNA Methyltransferase” (ACS Infectious Diseases, 2025)

Columns and labels:
Format in all cases: biochemical
[1] = target: T1, NpmA (16S rRNA (m1A1408) methyltransferase) (Escherichia coli, UniProt A8C927); assay: in vitro […] subunit [3H]-SAM methylation assay at fixed […]; conditions: read-out: % activity at 1 mM
T1 construct: recombinant NpmA

[2] = target: T1, NpmA (16S rRNA (m1A1408) methyltransferase); assay: in vitro […] subunit [3H]-SAM methylation filter-binding assay, dose-response; resynthesized and retested
[3] = target: T1, NpmA (16S rRNA (m1A1408) methyltransferase); assay: in vitro […] subunit [3H]-SAM methylation filter-binding assay, dose-response

T1 sequence (A8C927 whole entry): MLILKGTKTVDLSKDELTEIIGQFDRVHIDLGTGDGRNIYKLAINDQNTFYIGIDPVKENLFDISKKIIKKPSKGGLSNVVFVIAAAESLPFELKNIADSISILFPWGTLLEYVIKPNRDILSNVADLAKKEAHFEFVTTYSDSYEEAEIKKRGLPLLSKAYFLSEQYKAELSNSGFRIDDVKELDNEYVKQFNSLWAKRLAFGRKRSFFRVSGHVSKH

Structure (SMILES) | activity at 1000 µM [1] [%] | IC50 [3] [µM] | also measured
CC(=O)c1ccc(NC(=O)/C(=C/c2cccc([N+](=O)[O-])c2)NC(=O)c2ccc(C)cc2)cc1 [compound 3] | < 25 | – | –
Cc1ccc(-c2cc(C(=O)N3CCC(c4cc(O)ncn4)CC3)[nH]n2)cc1 [compound 10] | < 25 | – | –
COc1cc(C2C(C(=O)OCCc3ccccc3)=C(C)NC3=C2C(=O)CC(c2ccccc2)C3)cc(Br)c1O (stereo not drawn) [compound 20] | < 25 | – | –
CC(=O)c1ccc(NC(=O)/C(=C/c2cccc([N+](=O)[O-])c2)NC(=O)c2ccccc2Cl)cc1 [compound 23, (Z)-N-(3-((4-Acetylphenyl)-amino)-1-(3-nitrophenyl)-3-oxoprop-1-en-2-yl)-2-chlorobenz-amide] | – | – | IC50 [2]: 76 µM
Cc1ccc(NC(=O)C(=Cc2cccc([N+](=O)[O-])c2)NC(=O)c2ccccc2I)cc1 [compound 45] | – | 99 | –
Cc1ccc(NC(=O)C(=Cc2cccc([N+](=O)[O-])c2)NC(=O)c2ccc(Cl)cc2Cl)cc1 [compound 47] | – | 68 | –
